These results are taken from PubChem BioAssay (NCI).

Some test systems named below: SK-MEL-2 melanoma; HOP-92 NSCLC; CAKI-1 renal; MDA-MB-435; SK-MEL-28 melanoma; SF-539 CNS; HT29 colon; COLO 205 colon; TK-10 renal; PC-3 prostate.
Common to all, as to assay: NCI anticancer screen, dose series, 48 h

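All cell lines were grown in 96-well plates and treated with compound for 48 hours. GI50 = concentration required for 50% inhibition of growth. At the TGI there is no net growth.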

For `CNC(=O)c1c(C)oc2cc(Oc3ncnc4cc(OC)c(OC)cc34)ccc12`, the GI50 with SK-MEL-2 melanoma was above 100 µM; in the assay with HOP-92 NSCLC, 3.2 µM; in the assay with CAKI-1 renal, above 100 µM; with MDA-MB-435, above 100 µM; with SK-MEL-28 melanoma it was above 100 µM; in the assay on SF-539 CNS it was 2.03 µM. Further, the GI50 in the assay on HT29 colon, in the assay on COLO 205 colon, with TK-10 renal and in the assay with PC-3 prostate was above 100 µM in each case. Also, the TGI with SK-MEL-2 melanoma, in the assay on HOP-92 NSCLC, with CAKI-1 renal, in the assay on MDA-MB-435, in the assay with SK-MEL-28 melanoma and in the assay with SF-539 CNS was above 100 µM in each case. Also, the TGI in the assay on HT29 colon, in the assay on COLO 205 colon, with TK-10 renal and in the assay with PC-3 prostate was above 100 µM throughout.

On to `COc1ccc(C2(Cl)c3ccccc3N(c3ccccc3)c3ccccc32)cc1`, for which the GI50 in the assay with SK-MEL-2 melanoma is 0.377 µM; with HOP-92 NSCLC, 1.88 µM; in the assay with CAKI-1 renal, 1.68 µM; with MDA-MB-435, 0.242 µM; with SK-MEL-28 melanoma it was 0.222 µM; in the assay with SF-539 CNS it was 0.519 µM. For the same compound, the GI50 in the assay with HT29 colon was 0.306 µM; with COLO 205 colon, 0.421 µM; with TK-10 renal, 0.516 µM; with PC-3 prostate, 0.238 µM. For the same compound, the TGI in the assay on SK-MEL-2 melanoma turned out to be 1.85 µM; in the assay with HOP-92 NSCLC, 7.13 µM; in the assay on CAKI-1 renal it was 12.5 µM; in the assay with MDA-MB-435, 1.56 µM; in the assay on SK-MEL-28 melanoma, 1.49 µM; in the assay on SF-539 CNS, 1.95 µM. Moreover, the TGI in the assay on HT29 colon worked out at 2.3 µM; in the assay with COLO 205 colon, 2.45 µM; with TK-10 renal, 3.21 µM; with PC-3 prostate, 4.11 µM.

With `O=C1Nc2c(ccc(Cl)c2Cl)/C1=C/c1cc(Br)c(O)c(Br)c1`, the GI50 with SK-MEL-2 melanoma is 5.15 µM; in the assay on HOP-92 NSCLC it was 7.17 µM; in the assay with CAKI-1 renal, 2.59 µM; in the assay on MDA-MB-435, 2.02 µM; in the assay on SK-MEL-28 melanoma, 7.07 µM; in the assay on SF-539 CNS, 3.21 µM. Moreover, the GI50 with HT29 colon is 4.05 µM; in the assay on COLO 205 colon it was 5.05 µM; in the assay on TK-10 renal, 12 µM; with PC-3 prostate, 5.23 µM. For the same compound, the TGI in the assay with SK-MEL-2 melanoma was 20.9 µM; in the assay on HOP-92 NSCLC, 62.3 µM; in the assay on CAKI-1 renal, above 37 µM; in the assay on MDA-MB-435 it was 5.82 µM; in the assay on SK-MEL-28 melanoma, above 100 µM; in the assay with SF-539 CNS, 14.8 µM. In addition, the TGI in the assay on HT29 colon is 23.7 µM; in the assay with COLO 205 colon it was 27.4 µM; in the assay on TK-10 renal, above 100 µM; in the assay on PC-3 prostate, above 100 µM.

For `Oc1ccc(C=Nc2ccccc2O)cc1`, the TGI in the assay with SK-MEL-2 melanoma was 57.3 µM; with HOP-92 NSCLC, above 100 µM; with CAKI-1 renal, above 100 µM; in the assay with MDA-MB-435, 33 µM; with SK-MEL-28 melanoma, above 100 µM; in the assay with SF-539 CNS it was above 100 µM. For the same compound, the TGI with HT29 colon is above 100 µM; in the assay on COLO 205 colon it was 91.7 µM; with TK-10 renal it was above 100 µM; in the assay with PC-3 prostate, above 100 µM.

For `COc1cc(/C=C/c2cc(/C=C/c3ccc(O)c(OC)c3)n(C(=O)c3ccc(Cl)cc3)n2)ccc1O`, the GI50 was 1.92 µM in the assay with SK-MEL-2 melanoma; 3.97 µM in the assay on HOP-92 NSCLC; 2.97 µM in the assay with CAKI-1 renal; 0.449 µM in the assay with MDA-MB-435; 2.49 µM in the assay on SK-MEL-28 melanoma; 1.24 µM with SF-539 CNS. The GI50 was 3.42 µM with HT29 colon, 3.78 µM in the assay with COLO 205 colon, 4.2 µM with TK-10 renal and 2.66 µM with PC-3 prostate. For the same compound, the TGI in the assay on SK-MEL-2 melanoma is 5.85 µM; with HOP-92 NSCLC it was 22.2 µM; in the assay with CAKI-1 renal, 15 µM; in the assay with MDA-MB-435, 10.7 µM; with SK-MEL-28 melanoma, 12.2 µM; with SF-539 CNS it was 6.07 µM. Moreover, the TGI in the assay on HT29 colon was above 100 µM; with COLO 205 colon, 13.4 µM; in the assay with TK-10 renal, 14.7 µM; with PC-3 prostate, 15.5 µM.

In the case of `COc1cc2c(cc1OC(C)C)[C@H](c1ccc(Cl)cc1)N(c1ccc(N(C)CC3CCC(N4CCN(C)C(=O)C4)CC3)cc1)C(=O)C2` (stereo not given in full), the GI50 in the assay on SK-MEL-2 melanoma was 5.87 µM; in the assay with HOP-92 NSCLC it was 1.98 µM; in the assay with CAKI-1 renal, 0.345 µM; with MDA-MB-435, 2.47 µM; with SK-MEL-28 melanoma, 2 µM; in the assay on SF-539 CNS, 1.64 µM. The GI50 with HT29 colon is 2.7 µM; in the assay on COLO 205 colon, 2.59 µM; in the assay on TK-10 renal it was 3.63 µM; in the assay with PC-3 prostate, 1.98 µM. The TGI is 12.1 µM in the assay with SK-MEL-2 melanoma; 4.85 µM in the assay with HOP-92 NSCLC; 4.99 µM in the assay with CAKI-1 renal; 6.93 µM with MDA-MB-435; 4.29 µM in the assay with SK-MEL-28 melanoma; 3.21 µM in the assay with SF-539 CNS. Moreover, the TGI is 7.79 µM in the assay with HT29 colon, 7.36 µM in the assay on COLO 205 colon, 9.34 µM in the assay on TK-10 renal and 5.51 µM in the assay with PC-3 prostate.

With `O=C1N[C@@H]2[C@@H](O)[C@@H](O)[C@H](O)C[C@H]2c2cc3c(c(O)c21)OCCO3`, the GI50 with SK-MEL-2 melanoma is 0.286 µM; in the assay with HOP-92 NSCLC, 0.116 µM; with CAKI-1 renal, 0.989 µM; in the assay on MDA-MB-435, 0.269 µM; in the assay on SK-MEL-28 melanoma, 0.274 µM; in the assay with SF-539 CNS it was 0.254 µM. The GI50 with HT29 colon was 0.315 µM; in the assay with COLO 205 colon it was 0.162 µM; in the assay with TK-10 renal, 0.684 µM; in the assay on PC-3 prostate, 0.293 µM. The TGI amounted to 1.06 µM in the assay with SK-MEL-2 melanoma; 0.892 µM with HOP-92 NSCLC; 6.14 µM in the assay on CAKI-1 renal; 1.22 µM with MDA-MB-435; 1.23 µM in the assay with SK-MEL-28 melanoma; 0.928 µM in the assay on SF-539 CNS. In addition, the TGI came out at 2.08 µM in the assay on HT29 colon, 0.405 µM with COLO 205 colon, 5.09 µM in the assay with TK-10 renal and 2.54 µM in the assay on PC-3 prostate.

In the case of `CC1Cc2c(Cl)ncnc2N(C)c2ccc(Cl)cc21` (stereo not given), the GI50 with SK-MEL-2 melanoma is 0.28 µM; in the assay with HOP-92 NSCLC it was 0.279 µM; in the assay on CAKI-1 renal, 0.348 µM; in the assay on MDA-MB-435, 0.329 µM; in the assay on SK-MEL-28 melanoma, 0.394 µM; in the assay with SF-539 CNS it was 0.513 µM. In addition, the GI50 was 0.232 µM in the assay on HT29 colon, 0.19 µM with COLO 205 colon, 0.315 µM in the assay on TK-10 renal and 0.386 µM in the assay with PC-3 prostate. For the same compound, the TGI was 0.836 µM in the assay on SK-MEL-2 melanoma; 0.986 µM in the assay on HOP-92 NSCLC; above 100 µM with CAKI-1 renal; 1.85 µM with MDA-MB-435; 95.1 µM in the assay on SK-MEL-28 melanoma; above 100 µM in the assay on SF-539 CNS. Moreover, the TGI in the assay on HT29 colon is 0.846 µM; with COLO 205 colon, 0.369 µM; with TK-10 renal, 13.2 µM; in the assay with PC-3 prostate it was above 100 µM.
